Assay results: PubChem BioAssay (NCI)
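The compound was tested at five concentrations on cells cultured in 96-well plates, with a 48-hour exposure period. At the TGI there is no net growth.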

Experiments:
Test in all cases: NCI tumour cell line growth inhibition, 48 h
[1] = tested on: HL-60(TB) leukemia
[2] = tested on: DU-145 prostate
[3] = tested on: NCI-H226 lung
[4] = tested on: MDA-MB-231 breast
[5] = tested on: CCRF-CEM leukemia
[6] = tested on: M14 melanoma
[7] = tested on: PC-3 prostate
[8] = tested on: HCT-116 colon
[9] = tested on: 786-0 renal
[10] = tested on: HOP-62 NSCLC
[11] = tested on: MCF7 breast
[12] = tested on: MDA-N
[13] = tested on: IGROV1 ovarian
[14] = tested on: COLO 205 colon
[15] = tested on: SN12C renal
[16] = tested on: NCI-H522 lung
[17] = tested on: SK-MEL-5 melanoma
[18] = tested on: EKVX NSCLC
[19] = tested on: SK-OV-3 ovarian
[20] = tested on: OVCAR-5 ovarian
[21] = tested on: OVCAR-3 ovarian
[22] = tested on: HS 578T breast
[23] = tested on: A498 renal
[24] = tested on: SW-620 colon
[25] = tested on: ACHN renal
[26] = tested on: HCC-2998 colon
[27] = tested on: A549 NSCLC
[28] = tested on: U251 CNS
[29] = tested on: OVCAR-4 ovarian
[30] = tested on: MDA-MB-435
[31] = tested on: TK-10 renal
[32] = tested on: MALME-3M melanoma
[33] = tested on: RXF 393 renal
[34] = tested on: NCI-H460 lung
[35] = tested on: SF-295 CNS
[36] = tested on: UO-31 renal
[37] = tested on: RPMI-8226 leukemia
[38] = tested on: LOX IMVI melanoma
[39] = tested on: UACC-62 melanoma
[40] = tested on: OVCAR-8 ovarian
[41] = tested on: NCI/ADR-RES ovarian
[42] = tested on: K-562 leukemia
[43] = tested on: SK-MEL-28 melanoma
[44] = tested on: HT29 colon
[45] = tested on: SF-539 CNS
[46] = tested on: SF-268 CNS
[47] = tested on: KM12 colon
[48] = tested on: SNB-19 CNS
[49] = tested on: UACC-257 melanoma
[50] = tested on: HCT-15 colon
[51] = tested on: CAKI-1 renal
[52] = tested on: SK-MEL-2 melanoma
[53] = tested on: T-47D breast
[54] = tested on: NCI-H23 lung
[55] = tested on: MOLT-4 leukemia
[56] = tested on: SNB-75 CNS
[57] = tested on: SR leukemia
[58] = tested on: HOP-92 NSCLC

## CCOC(=O)Cc1cc(=O)[nH]c(-n2[nH]c(C)c(CCO)c2=O)n1
[1]
  TGI: > 100 µM
[2]
  TGI: > 100 µM
[3]
  TGI: > 100 µM
[4]
  TGI: > 100 µM
[5]
  TGI: > 100 µM
[6]
  TGI: > 100 µM
[7]
  TGI: > 100 µM
[8]
  TGI: > 100 µM
[9]
  TGI: > 100 µM
[10]
  TGI: > 100 µM
[11]
  TGI: > 100 µM
[12]
  TGI: > 100 µM
[13]
  TGI: > 100 µM
[14]
  TGI: > 100 µM
[15]
  TGI: > 100 µM
[16]
  TGI: > 100 µM
[17]
  TGI: > 100 µM
[18]
  TGI: > 100 µM
[19]
  TGI: > 100 µM
[20]
  TGI: > 100 µM
[21]
  TGI: > 100 µM
[22]
  TGI: > 100 µM
[23]
  TGI: > 100 µM
[24]
  TGI: > 100 µM
[25]
  TGI: > 100 µM
[26]
  TGI: > 100 µM
[27]
  TGI: > 100 µM
[28]
  TGI: > 100 µM
[29]
  TGI: > 100 µM
[30]
  TGI: > 100 µM
[31]
  TGI: > 100 µM
[32]
  TGI: > 100 µM
[33]
  TGI: > 100 µM
[34]
  TGI: > 100 µM
[35]
  TGI: > 100 µM
[36]
  TGI: > 100 µM
[37]
  TGI: > 100 µM
[38]
  TGI: > 100 µM
[39]
  TGI: > 100 µM
[40]
  TGI: > 100 µM
[41]
  TGI: > 100 µM
[42]
  TGI: > 100 µM
[43]
  TGI: > 100 µM
[44]
  TGI: > 100 µM
[45]
  TGI: > 100 µM
[46]
  TGI: > 100 µM
[47]
  TGI: > 100 µM
[48]
  TGI: > 100 µM
[49]
  TGI: > 100 µM
[50]
  TGI: > 100 µM
[51]
  TGI: > 100 µM
[52]
  TGI: > 100 µM
[53]
  TGI: > 100 µM
[54]
  TGI: > 100 µM

## O=C(O)c1cccc(S(=O)(=O)NN2C(=O)CSC2c2c(O)ccc3ccccc23)c1 (stereo not given)
[1]
  TGI: 59.8 µM
[2]
  TGI: > 100 µM
[3]
  TGI: > 100 µM
[4]
  TGI: > 100 µM
[5]
  TGI: 46.4 µM
[6]
  TGI: > 100 µM
[7]
  TGI: > 100 µM
[8]
  TGI: 38.5 µM
[9]
  TGI: > 100 µM
[10]
  TGI: > 100 µM
[12]
  TGI: > 100 µM
[13]
  TGI: 45.1 µM
[14]
  TGI: > 100 µM
[15]
  TGI: > 100 µM
[16]
  TGI: 77.6 µM
[17]
  TGI: 62.5 µM
[18]
  TGI: > 100 µM
[55]
  TGI: 46.3 µM
[19]
  TGI: > 100 µM
[20]
  TGI: > 100 µM
[21]
  TGI: 62.5 µM
[23]
  TGI: 46.2 µM
[24]
  TGI: 65.7 µM
[25]
  TGI: > 100 µM
[26]
  TGI: > 100 µM
[27]
  TGI: > 100 µM
[28]
  TGI: > 100 µM
[29]
  TGI: 83 µM
[56]
  TGI: > 100 µM
[30]
  TGI: > 100 µM
[31]
  TGI: > 100 µM
[32]
  TGI: 90.6 µM
[33]
  TGI: 89.1 µM
[34]
  TGI: > 100 µM
[35]
  TGI: 94.9 µM
[36]
  TGI: > 100 µM
[38]
  TGI: 60 µM
[39]
  TGI: 66.4 µM
[40]
  TGI: 15.7 µM
[41]
  TGI: 76.9 µM
[42]
  TGI: > 100 µM
[43]
  TGI: 79.2 µM
[44]
  TGI: 69.2 µM
[57]
  TGI: 59.6 µM
[45]
  TGI: 55.8 µM
[46]
  TGI: 91.5 µM
[47]
  TGI: > 100 µM
[48]
  TGI: 87 µM
[49]
  TGI: > 100 µM
[50]
  TGI: > 100 µM
[51]
  TGI: 68 µM
[52]
  TGI: > 100 µM
[53]
  TGI: 80.5 µM
[54]
  TGI: 51.1 µM

## CC(C)c1cc(C(C)C)c(B(c2ccccc2)c2ccccc2)c(C(C)C)c1B(c1ccccc1)c1ccccc1
[2]
  TGI: > 100 µM
[4]
  TGI: > 100 µM
[58]
  TGI: > 100 µM
[6]
  TGI: > 100 µM
[7]
  TGI: > 100 µM
[8]
  TGI: > 100 µM
[10]
  TGI: > 100 µM
[12]
  TGI: > 100 µM
[13]
  TGI: > 100 µM
[14]
  TGI: > 100 µM
[15]
  TGI: > 100 µM
[16]
  TGI: > 100 µM
[17]
  TGI: > 100 µM
[18]
  TGI: > 100 µM
[55]
  TGI: > 100 µM
[19]
  TGI: > 100 µM
[21]
  TGI: > 100 µM
[22]
  TGI: > 100 µM
[24]
  TGI: > 100 µM
[25]
  TGI: > 100 µM
[27]
  TGI: > 100 µM
[29]
  TGI: > 100 µM
[56]
  TGI: > 100 µM
[32]
  TGI: > 100 µM
[34]
  TGI: > 100 µM
[35]
  TGI: > 100 µM
[38]
  TGI: > 100 µM
[39]
  TGI: > 100 µM
[40]
  TGI: > 100 µM
[41]
  TGI: > 100 µM
[44]
  TGI: > 100 µM
[57]
  TGI: > 100 µM
[46]
  TGI: > 100 µM
[49]
  TGI: > 100 µM
[50]
  TGI: > 100 µM
[52]
  TGI: > 100 µM
[53]
  TGI: > 100 µM
